Assays:
[1] = biological target: T1, boron transporter (BOR1) BOR1-GFP fusion protein (Arabidopsis thaliana, UniProt Q8VYR7); test: structural (thermal) stability of solubilized BOR1-GFP by fluorescence-based size exclusion chromatography (FSEC); settings: for structural stability of solubilized BOR1-GFP after heating (RFU, FSEC): heated at 40° C. for 10 minutes, 1 wt % compound
T1 construct: made in house; host or cells: Saccharomyces cerevisiae FGY217
Protocol: The ability of PSAs or PSEs to stabilize the structure of boron transporter (BOR1) was measured in an aqueous solution. That is, the BOR1 protein solubilized in each amphipathic compound was denatured by heating, and then structural stability of BOR1 was measured using fluorescence-based size exclusion chromatography (FSEC).
(§1) Specifically, Arabidopsis thaliana-derived BOR1 was expressed in the form of a fusion protein having a GFP tag at the C-terminus in Saccharomyces cerevisiae FGY217 cells. The cells were grown in an URA-medium supplemented with 0.1% glucose. 2% galactose was added to the cell culture to induce protein expression and the cells were cultured at 20° C. for 18 hours (see Drew, D. et al., Nat. Protoc. 2008, 3, 784-798.). After culture, the cells were harvested and used to obtain the cell membranes (see Leung, J. et al., Protein Expr. Purif. 2010, 72, 139-146.). Membranes containing BOR1-GFP fusion proteins were diluted to a final total protein concentration of 2.8 mg/mL in PBS (pH7.4) supplemented with 1 wt % DDM, 1 wt % PSAs (PSA-C9, PSA-C10 or PSA-C11) or 1 wt % PSEs (PSE-C9, PSE-C11 or PSE-C13). The diluted samples were incubated at 4° C. for 1 hour with gentle shaking, and insoluble substances were removed by centrifugation at 14,000 g for 1 hour at 4° C. Supernatants containing the dissolved protein samples were incubated for 10 minutes at the specified temperature (35, 40, 45 or 50° C.), and strongly agglutinated proteins were removed by centrifugation at 14,000 g for 10 minutes at 4° C. 200 μL aliquots were taken from the supernatant and injected into a Superose 6 10/300 column equilibrated with 20 mM Tris-HCl (pH 7.5), 150 mM NaCl and 0.03% DDM. Each elution fraction was collected from a retention volume of 6.4 mL (i.e., after 6.4 mL of solution had passed), and added to a well of a clear bottom 96-well plate at a volume of 200 μL. GFP fluorescence generated in each fraction was measured using an excitation wavelength of 470 nm and an emission wavelength of 512 nm.

[2] = biological target: T2, human β2 adrenergic receptor (β2AR) (Homo sapiens, UniProt P07550); test: extraction and solubilization of β2AR directly from cell membranes ([3H]-DHA activity, SEC); settings: for SEC peak of extracted β2AR: buffer not containing amphipathic compounds
T2 construct: Flag; made in house
Protocol: The best, PSE-C11, among tested PSAs/PSEs was used to extract β2ARs directly from the cell membranes. Receptors were treated with 1.0 wt % PSE-C11 or DDM, and the activity of the receptors solubilized in PSE-C11 or DDM was measured using a radiolabeled ligand, [^3H]-DHA.
Specifically, experiments to extract and solubilize receptors from the cell membranes were performed as follows. 10 mL of a PSE-C11 amphipathic compound buffer (20 mM HEPES (pH 7.5), 100 mM NaCl, 1.0 wt % PSE-C11) was added to 1 g of an insect cell (Sf9) pellet expressing β2ARs. The mixture was stirred for solubilization for 1 hour. After performing centrifugation at 12,000 g for 20 minutes, a supernatant was collected and loaded onto a M1 Flag column in the presence of 2 mM CaCl2. The column was washed with a PSE-C11 buffer (20 mM HEPES (pH 7.5), 100 mM NaCl, 0.2 wt % amphipathic compound). Receptors were eluted with 20×CMC PSE-C11, 5 mM EDTA and 0.2 mg/mL free Flag peptides. To measure the activity of the receptors solubilized and purified by DDM or PSE-C11, 0.2 pmol of β2ARs was incubated with […] [^3H]-DHA and each amphipathic compound at room temperature for 30 minutes, and the activity of β2ARs was measured. The following procedure was performed in the same manner as described in Example 9-3. Each measurement was performed three times. The receptors solubilized in 20×CMC PSE-C11 or 20×CMC DDM were also applied to SEC under a buffer (20 mM HEPES (pH 7.5), 100 mM NaCl) not containing an amphipathic compound (PSE-C11 or DDM).

[3] = biological target: T1, boron transporter (BOR1) BOR1-GFP fusion protein; test: solubilization (extraction) of BOR1-GFP fusion protein from membranes; settings: amphipathic compound at 1.0 wt %
Protocol: The ability of PSAs and PSEs to solubilize membrane proteins and to stabilize the structures of membrane proteins was evaluated using boron transporter (BOR1), a membrane protein. BOR1 was isolated from Arabidopsis thaliana, and was expressed in the form of a fusion protein having a GFP tag at the C-terminus in Saccharomyces cerevisiae FGY217 cells. This fusion protein has been proven to have boron transporting activity and is therefore involved in both structural and functional analysis of membrane proteins.
The ability of amphipathic compound PSAs and PSEs to solubilize the boron transporter (BOR1) membrane protein was evaluated.
Specifically, membranes containing BOR1-GFP fusion proteins were treated with an existing amphipathic compound (DDM), PSAs (PSA-C9, PSA-C10 and PSA-C11), or PSEs (PSE-C9, PSE-C11 and PSE-C13) at a concentration of 1.0 wt %. The solubilization efficiencies of PSA-C9, PSA-C10 and PSE-C9 were about 80% similar to the solubilization efficiency of DDM. In particular, the BOR1-GFP protein was quantitatively extracted (˜100%) using PSE-C11 having medium length chains, thus confirming that PSE-C11 is particularly useful for solubilization of BOR1-GFP.
as §1

T2 sequence (P07550 whole entry): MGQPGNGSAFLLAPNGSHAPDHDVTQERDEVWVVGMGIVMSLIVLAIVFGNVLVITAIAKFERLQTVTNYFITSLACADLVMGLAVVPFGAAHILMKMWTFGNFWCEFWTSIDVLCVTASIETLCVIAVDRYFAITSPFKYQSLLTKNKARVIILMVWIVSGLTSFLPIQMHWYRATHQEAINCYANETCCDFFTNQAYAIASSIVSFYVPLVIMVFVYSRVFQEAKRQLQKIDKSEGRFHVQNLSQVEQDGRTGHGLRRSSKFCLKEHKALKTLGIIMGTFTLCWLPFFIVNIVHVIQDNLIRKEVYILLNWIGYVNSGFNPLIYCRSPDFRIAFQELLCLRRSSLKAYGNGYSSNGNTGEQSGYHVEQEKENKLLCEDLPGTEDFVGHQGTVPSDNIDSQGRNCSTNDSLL

## CCCCCCCCCCCC(CCCCCCCCCCC)CO[C@@H]1OC(CO[C@@H]2OC(CO)[C@@H](O)C(O)C2O)[C@@H](O[C@@H]2OC(CO)[C@@H](O)C(O)C2O)C(O[C@@H]2OC(CO)[C@@H](O)C(O)C2O)C1O[C@@H]1OC(CO)[C@@H](O)C(O)C1O (stereo partly drawn) [PSA-C11]
[1]
  structural stability of solubilized BOR1-GFP after heating (RFU, FSEC): remarkably improved as compared to DDM and PSA-C9

## CCCCCCCCCCCCCOCC(COCCCCCCCCCCCCC)O[C@@H]1OC(CO[C@@H]2OC(CO)[C@@H](O)C(O)C2O)[C@@H](O[C@@H]2OC(CO)[C@@H](O)C(O)C2O)C(O[C@@H]2OC(CO)[C@@H](O)C(O)C2O)C1O[C@@H]1OC(CO)[C@@H](O)C(O)C1O (stereo partly drawn) [PSE-C13]
[1]
  structural stability of solubilized BOR1-GFP after heating (RFU, FSEC): greatly improved compared to DDM

## CCCCCCCCCCCCO[C@@H]1O[C@H](CO)[C@@H](O[C@H]2O[C@H](CO)[C@@H](O)[C@H](O)[C@H]2O)[C@H](O)[C@H]1O [DDM, n-dodecyl-β-D-maltopyranoside, reference compound]
[2]
  SEC peak of extracted β2AR: no peak corresponding to the proteins was observed
[1]; 35° C. for 10 minutes
  state of solubilized BOR1-GFP after heating: retained the original state thereof
[1]; 40 or 45° C. for 10 minutes
  state of solubilized BOR1-GFP after heating: complete denaturation/aggregation occurred
[1]
  structural stability of solubilized BOR1-GFP after heating (RFU, FSEC): RFUs were relatively low due to denaturation after heating
[3]
  solubilization efficiency of BOR1-GFP: about 80%

## CCCCCCCCCCCOCC(COCCCCCCCCCCC)O[C@@H]1OC(CO[C@@H]2OC(CO)[C@@H](O)C(O)C2O)[C@@H](O[C@@H]2OC(CO)[C@@H](O)C(O)C2O)C(O[C@@H]2OC(CO)[C@@H](O)C(O)C2O)C1O[C@@H]1OC(CO)[C@@H](O)C(O)C1O (stereo partly drawn) [PSE-C11]
[2]; 1.0 wt % PSE-C11 or DDM
  activity of β2AR extracted from cell membranes ([3H]-DHA): higher activity than proteins extracted by DDM
[2]
  SEC peak of extracted β2AR: a distinct monodisperse peak
[1]; 40 or 45° C. for 10 minutes
  state of solubilized BOR1-GFP after heating: maintained monodispersibility
[1]
  structural stability of solubilized BOR1-GFP after heating (RFU, FSEC): greatly improved compared to DDM
[3]
  solubilization efficiency of BOR1-GFP: ~100%
